Test results from patent publication US5157020A, “Synthetic senescent cell antigen” (Research Corporation Tech., Inc., priority 1990, dated 1992).

Molecular target: T1, band 3 (Homo sapiens, UniProt P02730)
T1 construct: endogenous in cells; host or cells: stored red blood cells (middle-aged cells stored in Alsever's for 5 wks at 4 C)
T1 sequence (P02730 1-911): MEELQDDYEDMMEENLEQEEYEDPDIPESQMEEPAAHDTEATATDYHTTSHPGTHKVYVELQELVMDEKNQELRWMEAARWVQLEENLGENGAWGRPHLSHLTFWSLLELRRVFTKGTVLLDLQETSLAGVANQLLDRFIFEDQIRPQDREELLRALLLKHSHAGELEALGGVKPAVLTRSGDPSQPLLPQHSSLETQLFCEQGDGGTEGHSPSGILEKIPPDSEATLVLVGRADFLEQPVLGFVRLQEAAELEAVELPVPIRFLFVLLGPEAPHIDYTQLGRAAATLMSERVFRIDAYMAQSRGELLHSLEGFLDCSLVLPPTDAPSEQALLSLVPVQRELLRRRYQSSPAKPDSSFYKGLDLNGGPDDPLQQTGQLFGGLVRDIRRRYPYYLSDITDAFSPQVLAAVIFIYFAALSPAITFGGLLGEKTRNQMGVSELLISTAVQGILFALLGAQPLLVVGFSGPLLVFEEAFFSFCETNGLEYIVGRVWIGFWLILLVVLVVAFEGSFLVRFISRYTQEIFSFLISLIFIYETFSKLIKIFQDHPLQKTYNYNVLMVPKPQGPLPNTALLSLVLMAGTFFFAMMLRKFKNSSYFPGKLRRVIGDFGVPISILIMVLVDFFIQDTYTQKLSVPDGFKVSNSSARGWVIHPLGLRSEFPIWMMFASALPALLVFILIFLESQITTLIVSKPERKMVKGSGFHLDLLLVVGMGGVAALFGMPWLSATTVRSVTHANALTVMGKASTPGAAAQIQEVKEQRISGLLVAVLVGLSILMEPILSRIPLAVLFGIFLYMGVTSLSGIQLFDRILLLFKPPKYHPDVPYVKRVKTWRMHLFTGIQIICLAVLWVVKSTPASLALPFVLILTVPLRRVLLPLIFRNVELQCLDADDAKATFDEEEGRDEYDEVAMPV
Assay: DIDS treatment of stored cells prior to incubation with senescent cell IgG
Format: cell-based
Settings: stored cells incubated with 25 uM DIDS for 90 min at room temperature before senescent cell IgG
Description: Since DNP and DIDS modification of ANION 1 and COOH abolished inhibition of senescent cell IgG binding, we reasoned that DIDS binding to band 3 lysines in whole cells should interfere with senescent cell IgG binding. Stored cells were incubated with 25 uM DIDS for 90 min at room temperature prior to incubation with senescent cell IgG. […] Another possibility is that DIDS binding perturbs the configuration of the molecule so that the binding site is altered. However, since our studies indicate that the actual antigenic determinants reside on ANION 1 and COOH (Example 1), it is unlikely that a distant perturbation of the antigenic site by DIDS binding is responsible. It is more likely that a DIDS reactive lysine lies in or near enough to the antigenic site to cause steric hindrance.

SMILES: O=S(=O)(O)c1cc(N=C=S)ccc1CCc1ccc(N=C=S)cc1S(=O)(=O)O [DIDS, diisothiocyano dihydrostilbene disulphonate]
- inhibition of senescent cell IgG binding: 54±3%
